# In publication PMC8466300, “Investigating the Central Nervous System Disposition of Actinomycin D: Implementation and Evaluation of Cerebral Microdialysis and Brain Tissue Measurements Supported by UPLC-MS/MS Quantification” (Pharmaceutics, 2021):
# Read-outs that look alike come from different tables or passages of the source. *1 amine or outer side, *2 acyl side, *3 side chain or, on linkers, in order; H or OH if unused. Where a SMILES comes first, the peptide text is derived from it. Bridges are numbered along the chain shown (N, C = ends). Roman numbers before positions name the chains, in order. [ ]: non-standard residue; d: D form. Actinocin(9to1) = Cc1c2oc3c(C)ccc(C(=O)[*:1])c3nc-2c(C(=O)[*:2])c(N)c1=O; NMeV = CN[C@H](C(=O)O)C(C)C; Sar = CNCC(=O)O
# What was measured:
# [1] = N = 3, UPLC-MS/MS; for Freeze-and-thaw stability, accuracy: plasma, three freeze-and-thaw cycles separated by at least 24 h
# Experimental: Accuracy was calculated as the percentage of the ratio of the mean determined concentration in individual analytical runs and the nominal value. Precision was expressed in percent and is defined as the coefficient of variation of the measured sample concentrations at each QC level. Three validation runs were analyzed, each containing eight calibration samples in duplicate determination and four QC samples at LLOQ, and low, mid, and high QC concentration in six replicates. Selectivity was evaluated using blank plasma samples from six naïve mice and brain tissue homogenates from two mice. Extraction recovery was calculated from peak areas after extraction from the QC samples divided by the respective peak areas obtained from blank plasma spiked after extraction. Matrix effects were evaluated by comparison of the peak areas of the blank plasma samples spiked after extraction with the respective peak areas of matrix-free UPLC solvent samples spiked with the identical amount. Stability of the analyte was tested in three freeze-and-thaw cycles separated by at least 24 h, in plasma samples stored for 1 month at −25 °C, in microdialysate stored at room temperature for 2 d, and in extracts left in the autosampler for 24 h. Additionally, an incurred sample reanalysis was performed for all plasma samples with sufficient volume for reanalysis.
# [2] = Non-specific binding to microdialysis equipment; assay type: physicochemical; conditions: in vitro; polypropylene sampling tubes; reduced by BSA ≥1% in Ringer solution
# Experimental: In preparation of the cerebral microdialysis, we first investigated the adsorption and recovery characteristics of the microdialysis probes, tubing, and pump system, to test the validity of the microdialysis determinations. […] In order to reduce nonspecific binding, BSA supplement of the microdialysis buffer was tested in different concentrations, ranging from 0.1 to 2%. […] Therefore, 1% BSA in Ringer solution was used for all microdialysis experiments.
# [3] = 7 months at −20 °C; cited from earlier work
# in vitro = conditions: mouse, plasma
# Experimental: (§1) To determine the previously unknown unbound fraction of actinomycin D in plasma and brain tissue homogenate, we performed rapid equilibrium dialysis (RED) in duplicate. For this, samples were spiked with drug solutions that were prepared in plasma or brain tissue homogenate to obtain minimally diluted samples (30 ng/mL for plasma and 30 ng/g for brain tissue). The free actinomycin D tissue fraction was also quantified in a pooled sample of brain tissue homogenates from the three mice euthanized 2 h after dosing. Determinations were performed on a RED apparatus (ThermoFisher Scientific, Waltham, MA, USA) according to the manufacturer´s instructions under gentle agitation for 12 h at 37 °C.
# P-gp/ABCB1 = P-gp/ABCB1 (Homo sapiens, UniProt P08183); conditions: 0.01 µM, 10-120 min, 37 °C, 1 million cells, duplicate, cell homogenate UPLC-MS/MS; L-MDR1 vs LLC-PK1
# Sequence of P-gp/ABCB1 (P08183 whole entry): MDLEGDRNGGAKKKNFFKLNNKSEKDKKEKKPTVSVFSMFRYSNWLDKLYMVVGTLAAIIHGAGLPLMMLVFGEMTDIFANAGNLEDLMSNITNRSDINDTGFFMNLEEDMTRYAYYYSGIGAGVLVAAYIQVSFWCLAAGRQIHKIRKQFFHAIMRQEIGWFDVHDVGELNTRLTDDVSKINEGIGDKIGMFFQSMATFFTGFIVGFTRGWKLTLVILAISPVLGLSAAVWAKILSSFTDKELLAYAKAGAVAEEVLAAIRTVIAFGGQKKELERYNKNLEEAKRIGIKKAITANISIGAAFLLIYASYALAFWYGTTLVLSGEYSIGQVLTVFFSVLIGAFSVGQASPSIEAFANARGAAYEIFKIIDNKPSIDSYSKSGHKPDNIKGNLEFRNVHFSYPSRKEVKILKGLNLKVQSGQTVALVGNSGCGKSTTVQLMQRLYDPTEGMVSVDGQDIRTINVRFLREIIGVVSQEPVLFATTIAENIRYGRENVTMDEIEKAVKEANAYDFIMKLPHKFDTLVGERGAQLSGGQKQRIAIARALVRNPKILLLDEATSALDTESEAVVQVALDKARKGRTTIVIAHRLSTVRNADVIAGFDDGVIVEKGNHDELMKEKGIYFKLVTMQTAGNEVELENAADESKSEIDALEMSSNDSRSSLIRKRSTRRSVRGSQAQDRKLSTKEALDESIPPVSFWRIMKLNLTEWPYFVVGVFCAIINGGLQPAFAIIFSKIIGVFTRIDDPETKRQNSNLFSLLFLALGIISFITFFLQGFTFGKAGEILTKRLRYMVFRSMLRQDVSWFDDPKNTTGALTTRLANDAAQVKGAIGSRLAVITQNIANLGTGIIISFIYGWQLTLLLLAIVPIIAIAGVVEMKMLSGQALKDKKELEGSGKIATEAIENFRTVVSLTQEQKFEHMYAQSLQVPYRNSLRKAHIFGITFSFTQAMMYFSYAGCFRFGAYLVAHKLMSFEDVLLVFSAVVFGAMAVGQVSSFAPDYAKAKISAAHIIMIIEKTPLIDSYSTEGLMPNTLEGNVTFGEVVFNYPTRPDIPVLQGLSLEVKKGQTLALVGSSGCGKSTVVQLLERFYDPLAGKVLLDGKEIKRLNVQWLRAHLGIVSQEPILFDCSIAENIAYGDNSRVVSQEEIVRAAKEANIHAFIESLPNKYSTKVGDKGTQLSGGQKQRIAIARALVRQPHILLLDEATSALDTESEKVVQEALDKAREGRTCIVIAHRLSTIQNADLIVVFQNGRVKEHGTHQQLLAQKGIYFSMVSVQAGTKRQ
# Experimental: To confirm the P-gp substrate characteristics of actinomycin D, we conducted growth inhibition and uptake assays in a cell line over-expressing human P-gp/ABCB1 (L-MDR1 cells) in comparison to the respective parental cell line (LLC-PK1). L-MDR1 cells were kindly provided by A. H. Schinkel (The Netherlands Cancer Institute, Division of Experimental Therapy, Amsterdam, The Netherlands). The cells were cultured under standard cell culture conditions with medium M199 supplemented with 10% FCS, 2 mM glutamine, 100 U/mL penicillin, and 100 µg/mL streptomycin sulfate. The culture medium for L-MDR1 was supplemented with 0.64 µM vincristine to maintain P-gp/ABCB1 expression. One day before using the cells in the assays, both cell lines were fed with vincristine-free culture medium.
# [4] = female NSG mice, 0.5 mg/kg i.v. bolus, estimates; for Cmax: plasma at 0.75, 6, 22 h, UPLC-MS/MS; for t1/2 (half-life): plasma up to 22 h; for AUC (extrapolated to infinity): plasma
# Experimental: The experiments were carried out in accordance with the European regulations for care and use of laboratory animals (2010/63/EU) under the German license number G-187/18 and the internal reference number DKFZ374, approved by the responsible regional council (Regierungspräsidium Karlsruhe, Germany). Female 8-week-old NSG mice (NOD.Cg-Prkdc^scid Il2rg^tm1Wjl/SzJ-NOD-SCID gamma-mice) with a weight of approximately 25 g were used for the studies. […] Mice received analgesia (metamizole) and anesthesia with isoflurane during surgery. […] Therefore, we chose to take blood samples 0.75, 6, and 22 h after intravenous bolus injection into the tail vein for the assay’s feasibility pharmacokinetic experiment. […] Full blood samples were transferred into citrate tubes (Sarstedt, Germany) and centrifuged at 1600× g for 10 min to generate plasma samples, which were stored at −80 °C until analysis. […] For validation of the UPLC-MS/MS quantification, blank plasma from 6 naïve mice was used and blank brain tissue was obtained from 2 unexposed mice.
# For protein precipitation of plasma microsamples, an excess of ACN (50 µL) with 0.1% FA containing the IS was applied to an Impact® 96-well protein precipitation plate (Phenomenex, Torrance, CA, USA). Subsequently, 20 µL of the plasma samples were added and the plates sealed and shaken for 1 min. […] For protein depletion, samples were filtered into a 96-well collection plate (Waters, Milford, MA, USA) by applying positive pressure with a 96-well positive pressure unit (Waters, Milford, MA, USA) operated with air overpressure of 5 psi. After addition of 40 µL of water containing 0.1% FA, the collection plates were sealed, shaken, and extracts injected onto the UPLC system.
# [5] = rapid equilibrium dialysis, 12 h, 37 °C
# Experimental: as §1
# [6] = Stability in microdialysis buffer and in solution (assay validation); assay type: physicochemical; conditions: for 6-month stability in solution at 4°C, accuracy: ACN/H2O (1/1) + 0.1% FA solutions, 6 months; for 6-month stability in solution at 4°C, accuracy / 2 days buffer stability at RT, accuracy: N = 3; for 2 days buffer stability at RT, accuracy: microdialysate buffer (1% BSA Ringer)
# Experimental: Plasma calibration samples were prepared by spiking blank plasma (75 µL) with 25 µL of the calibration sub-solution, yielding plasma concentrations of 0.05, 0.2, 0.5, 1, 3, 10, 30, and 100 ng/mL. Plasma QC samples were prepared accordingly at concentrations of 0.05, 0.15, 3, and 60 ng/mL. Brain tissue homogenate calibration samples were prepared by spiking brain tissue homogenate (75 µL), which was prepared at 100 mg tissue per mL of 5% aqueous ACN containing 0.5% Triton X, with 25 µL of the calibration sub-solution, yielding concentrations corresponding to 0.5, 2, 5, 10, 30, 100, 300, and 1000 ng/g. Brain tissue homogenate QC samples were prepared accordingly, at corresponding concentrations of 0.5, 1.5, 30, and 600 ng/g. Solutions were kept at 4 °C for up to 6 months.
smiles,measurement,setting,value
"Cc1c2oc3c(C)ccc(C(=O)N[C@@H]4C(=O)N[C@H](C(C)C)C(=O)N5CCC[C@H]5C(=O)N(C)CC(=O)N(C)[C@@H](C(C)C)C(=O)O[C@@H]4C)c3nc-2c(C(=O)N[C@@H]2C(=O)N[C@H](C(C)C)C(=O)N3CCC[C@H]3C(=O)N(C)CC(=O)N(C)[C@@H](C(C)C)C(=O)O[C@@H]2C)c(N)c1=O [actinomycin D, Actinomycin D] (I: T[dV]P[Sar][NMeV] / II: T[dV]P[Sar][NMeV]; ester I:1-I:C, II:1-II:C; linker I:N-II:N via Actinocin(9to1))","1-month plasma stability at -25 °C, accuracy",[1]; High QC 60.0 ng/mL,100.7%
same,"1-month plasma stability at -25 °C, accuracy",[1]; Low QC 0.150 ng/mL,95.6%
same,"1-month plasma stability at -25 °C, accuracy",[1]; Medium QC 3.00 ng/mL,98.3%
same,"Freeze-and-thaw stability, accuracy",[1]; High QC 60.0 ng/mL,87.6%
same,"Freeze-and-thaw stability, accuracy",[1]; Low QC 0.150 ng/mL,93.6%
same,"Freeze-and-thaw stability, accuracy",[1]; Medium QC 3.00 ng/mL,92.0%
same,non-specific binding to microdialysis equipment,[2],substantially adhered
same,long-term stability in human plasma,[3],has already been demonstrated
same,"fraction unbound at 12 h, 30 ng/mL",in vitro,0.231
same,accumulation in P-gp over-expressing cell line versus parental cell line,P-gp/ABCB1,lower accumulation
same,Cmax,[4]; mouse 1,22.6 ng/mL
same,Cmax,[4]; mouse 2,14.6 ng/mL
same,Cmax,[4]; mouse 3,10.3 ng/mL
same,t1/2 (half-life),[4]; mouse 1,5.07 h
same,t1/2 (half-life),[4]; mouse 2,6.14 h
same,t1/2 (half-life),[4]; mouse 3,6.90 h
same,AUC (extrapolated to infinity),[4]; mouse 1,171 ng·h/mL
same,AUC (extrapolated to infinity),[4]; mouse 2,111 ng·h/mL
same,AUC (extrapolated to infinity),[4]; mouse 3,101 ng·h/mL
same,Cl (clearance),[4]; mouse 1,1.22 mL/min
same,Vss (volume of distribution),[4]; mouse 1,0.53 L
same,Cl (clearance),[4]; mouse 2,1.87 mL/min
same,Vss (volume of distribution),[4]; mouse 2,0.98 L
same,Cl (clearance),[4]; mouse 3,2.06 mL/min
same,Vss (volume of distribution),[4]; mouse 3,1.23 L
same,free fraction in spiked brain tissue homogenate,"[5]; minimally diluted homogenate spiked at 30 ng/g, duplicate, UPLC-MS/MS",3.4%
same,free fraction in brain tissue homogenate of dosed mice,"[5]; pooled homogenates of three mice 2 h after 0.5 mg/kg i.v., estimated from response values below LLOQ",< 3%
same,stability in the microdialysis buffer,"[6]; 1% BSA in Ringer solution, 2 d, room temperature",stable
same,"6-month stability in solution at 4°C, accuracy",[6]; High QC 60.0 ng/mL,87.2%
same,"6-month stability in solution at 4°C, accuracy",[6]; Low QC 0.150 ng/mL,88.3%
same,"6-month stability in solution at 4°C, accuracy",[6]; Medium QC 3.00 ng/mL,86.4%
same,"2 days buffer stability at RT, accuracy","[6]; room temperature, High QC 60.0 ng/mL",104.7%
same,"2 days buffer stability at RT, accuracy","[6]; room temperature, Low QC 0.150 ng/mL",108.7%
same,"2 days buffer stability at RT, accuracy","[6]; room temperature, Medium QC 3.00 ng/mL",113.5%
same,time stable in solution,[6]; stored solutions kept at 4 °C,at least 6 months
